Source: ChEMBL document CHEMBL1201862, “PubChem BioAssay data set” (2004)
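Grown in 96-well plates, cells were treated for 48 hours with each compound at five concentrations. Insufficient inhibition: endpoint recorded as highest concentration tested. GI50 is the concentration that inhibits growth by half.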 Calls of active or inactive are those of the source. Cut-off read from the data, not from the text of the source: active = GI50 up to about 1.1 µM and inactive = higher.

Assays:
Experiment in all cases: inhibition of tumour cell growth, NCI panel, 48 h
ACHN = system: ACHN
EKVX = system: EKVX
HCT-15 = system: HCT-15
HOP-62 = system: HOP-62
IGROV-1 = system: IGROV-1
K562 = system: K562
KM12 = system: KM12
M14 = system: M14
NCI-H226 = system: NCI-H226
OVCAR-8 = system: OVCAR-8
SF-268 = system: SF-268
SK-MEL-2 = system: SK-MEL-2
SK-OV-3 = system: SK-OV-3
SN12C = system: SN12C
SNB-19 = system: SNB-19
TK-10 = system: TK-10
U-251 = system: U-251
UACC-257 = system: UACC-257
UO-31 = system: UO-31
MDA-MB-231 = system: MDA-MB-231

SMILES | GI50 (ACHN) | GI50 (EKVX) | GI50 (HCT-15) [µM] | GI50 (HOP-62) | GI50 (IGROV-1) | GI50 (K562) | GI50 (KM12) | GI50 (M14) | GI50 (NCI-H226) | GI50 (OVCAR-8) | GI50 (SF-268) | GI50 (SK-MEL-2) | GI50 (SK-OV-3) | GI50 (SN12C) | GI50 (SNB-19) | GI50 (TK-10) | GI50 (U-251) | GI50 (UACC-257) | GI50 (UO-31) | GI50 (MDA-MB-231)
CNC(C)Cc1ccc(O)cc1 (configuration not stated) | > 100 µM (inactive) | > 100 µM (inactive) | > 100 | > 100 µM (inactive) | > 100 µM (inactive) | > 100 µM (inactive) | > 100 µM (inactive) | > 100 µM (inactive) | > 100 µM (inactive) | > 100 µM (inactive) | > 100 µM (inactive) | > 100 µM (inactive) | > 100 µM (inactive) | > 100 µM (inactive) | > 100 µM (inactive) | > 100 µM (inactive) | > 100 µM (inactive) | > 100 µM (inactive) | > 100 µM (inactive) | –
CO/C(C)=N/CCC1=CCCCC1 | > 100 µM (inactive) | > 100 µM (inactive) | > 100 | > 100 µM (inactive) | > 100 µM (inactive) | 93.1 µM (inactive) | > 100 µM (inactive) | > 100 µM (inactive) | – | > 100 µM (inactive) | > 100 µM (inactive) | > 100 µM (inactive) | > 100 µM (inactive) | – | > 100 µM (inactive) | > 100 µM (inactive) | > 100 µM (inactive) | > 100 µM (inactive) | > 100 µM (inactive) | > 100 µM (inactive)
CC(=O)NNc1nc(C)c(C(=O)NNC(=O)C(=O)Nc2ccc(Cl)cc2)s1 | 54.6 µM (inactive) | > 100 µM (inactive) | > 100 | > 100 µM (inactive) | > 100 µM (inactive) | 46.2 µM (inactive) | > 100 µM (inactive) | > 100 µM (inactive) | > 100 µM (inactive) | > 100 µM (inactive) | 49.7 µM (inactive) | > 100 µM (inactive) | > 100 µM (inactive) | > 100 µM (inactive) | > 100 µM (inactive) | > 100 µM (inactive) | > 100 µM (inactive) | > 100 µM (inactive) | > 100 µM (inactive) | –
NCCN1C(=O)c2ccccc2C1c1ccc(Cl)cc1 (configuration not stated) | > 100 µM (inactive) | > 100 µM (inactive) | > 100 | > 100 µM (inactive) | > 100 µM (inactive) | > 100 µM (inactive) | > 100 µM (inactive) | > 100 µM (inactive) | – | > 100 µM (inactive) | > 100 µM (inactive) | > 100 µM (inactive) | > 100 µM (inactive) | > 100 µM (inactive) | > 100 µM (inactive) | > 100 µM (inactive) | > 100 µM (inactive) | > 100 µM (inactive) | > 100 µM (inactive) | > 100 µM (inactive)
CN(C)/C(=N\C#N)N(Cc1ccccc1)Cc1ccccc1 | > 100 µM (inactive) | > 100 µM (inactive) | 16.6 | > 100 µM (inactive) | > 100 µM (inactive) | 17.9 µM (inactive) | > 100 µM (inactive) | > 100 µM (inactive) | > 100 µM (inactive) | 87.3 µM (inactive) | 98.2 µM (inactive) | > 100 µM (inactive) | > 100 µM (inactive) | > 100 µM (inactive) | > 100 µM (inactive) | > 100 µM (inactive) | > 100 µM (inactive) | > 100 µM (inactive) | 80.5 µM (inactive) | –
c1ccc(N2N=C(c3ccco3)CC2c2ccco2)cc1 (configuration not stated) | 42.6 µM (inactive) | 98.9 µM (inactive) | 69.8 | > 100 µM (inactive) | > 100 µM (inactive) | 34.3 µM (inactive) | 47.4 µM (inactive) | > 100 µM (inactive) | 66.8 µM (inactive) | > 100 µM (inactive) | > 100 µM (inactive) | > 100 µM (inactive) | – | > 100 µM (inactive) | > 100 µM (inactive) | > 100 µM (inactive) | > 100 µM (inactive) | – | 28.6 µM (inactive) | –
O=C1c2cc3c(cc2[C@@H]2C(O)[C@H]4O[C@H]4C4CCN1C42)OCO3 (some centres not stated) | > 37.5 µM (inactive) | > 37.5 µM (inactive) | > 37.5 | > 37.5 µM (inactive) | > 37.5 µM (inactive) | > 37.5 µM (inactive) | > 37.5 µM (inactive) | > 37.5 µM (inactive) | > 37.5 µM (inactive) | > 37.5 µM (inactive) | > 37.5 µM (inactive) | > 37.5 µM (inactive) | > 37.5 µM (inactive) | > 37.5 µM (inactive) | > 37.5 µM (inactive) | > 37.5 µM (inactive) | – | – | > 37.5 µM (inactive) | –
Cc1ccc2nc(-c3ccc(C(C)(C)C)cc3)oc(=O)c2c1 | 12.3 µM (inactive) | 20 µM (inactive) | 16.4 | 27.9 µM (inactive) | 23.1 µM (inactive) | 17.3 µM (inactive) | 7.38 µM (inactive) | 23.8 µM (inactive) | – | 16.9 µM (inactive) | 24.5 µM (inactive) | 26.7 µM (inactive) | 22.9 µM (inactive) | 38.8 µM (inactive) | 25.2 µM (inactive) | 39.7 µM (inactive) | 16.2 µM (inactive) | 18.9 µM (inactive) | 26.6 µM (inactive) | 20.6 µM (inactive)
